| melting point | Structure (SMILES) |
| --- | --- |
| 213 to 215 °C | CCn1c(-c2ccc(N3CCCS3(=O)=O)cc2)c(C#N)c2ccc(OCCOC)cc21 [Compound 1332] |
| 160 to 164 °C | CCn1c(-c2ccc(N3CCCS3(=O)=O)cc2)c(C#N)c2ccc(OCCOCCOC)cc21 [Compound 1333] |
| 179 to 180 °C | N#Cc1c(-c2ccc(NS(=O)(=O)C3CC3)cc2)n(CC2CCCO2)c2cc(OC(F)F)ccc12 (centres unmarked) [Compound 1335] |
| 173 to 176 °C | CC(C)S(=O)(=O)Nc1ccc(-c2c(C#N)c3ccc(OC(F)F)cc3n2CC2CCCO2)cc1 (centres unmarked) [Compound 1336] |
| 186 to 187 °C | CCOc1ccc(-c2c(C#N)c3ccc(N4CCN(C)CC4)cc3n2CC)cc1 [Compound 1338] |
| 232 to 234 °C | CC(C)n1c(-c2ccc(N(S(C)(=O)=O)S(C)(=O)=O)cc2)c(C#N)c2ccc(OC(F)F)cc21 [Compound 1342] |
| 294 to 296 °C | CCn1c(-c2ccc(NS(=O)(=O)CC)cc2)c(C#N)c2ccc(C(=O)O)cc21 [Compound 1344] |
| 134.2 to 139.5 °C | CCN(CC)C(=O)Oc1ccc(-c2c(C#N)c3ccc(OC)cc3n2CC)cc1 [Compound 1348] |
| 163 to 164 °C | C=COC(=O)Nc1cccc(-c2c(C#N)c3ccc(OCC)cc3n2C2CCC2)c1 [Compound 1355] |
| 278 to 280 °C | CCn1c(-c2ccc(N3CCCS3(=O)=O)cc2)c(C#N)c2ccc(N3CCN(S(=O)(=O)C4CC4)CC3)cc21 [Compound 1357] |
| 260 to 261 °C | CCn1c(-c2ccc(N3CCCS3(=O)=O)cc2)c(C#N)c2ccc(N3CCN(C(=O)c4ccccc4)CC3)cc21 [Compound 1358] |
| 238 to 241 °C | CCn1c(-c2ccc(NS(=O)(=O)CC)cc2)c(C#N)c2ccc(C(=O)N3CCOCC3)cc21 [Compound 1361] |
| 236 to 238 °C | CCn1c(-c2ccc(NS(=O)(=O)CC)cc2)c(C#N)c2ccc(C(=O)N3CCN(c4ccccc4)CC3)cc21 [Compound 1362] |
| 168 to 171 °C | CCn1c(-c2ccc(NS(=O)(=O)CC)cc2)c(C#N)c2ccc(C(=O)N3CCCC3)cc21 [Compound 1363] |
| 168 to 169 °C | CCn1c(-c2ccc(N)cc2)c(C#N)c2ccc(OCCOC)cc21 [Compound 1366] |
| 191 to 194 °C | CCn1c(-c2ccc(NC(=O)OC)cc2)c(C#N)c2ccc(OCCOC)cc21 [Compound 1367] |
| 175 to 177 °C | CCOC(=O)Nc1ccc(-c2c(C#N)c3ccc(OCCOC)cc3n2CC)cc1 [Compound 1368] |
| 154 to 156 °C | CCCOC(=O)Nc1ccc(-c2c(C#N)c3ccc(OCCOC)cc3n2CC)cc1 [Compound 1369] |
| 145 to 148 °C | CCn1c(-c2ccc(NC(=O)OCC(C)C)cc2)c(C#N)c2ccc(OCCOC)cc21 [Compound 1370] |
| 166 to 168 °C | CCn1c(-c2ccc(NC(=O)OCCF)cc2)c(C#N)c2ccc(OCCOC)cc21 [Compound 1371] |
| 107 to 109 °C | CCn1c(-c2ccc(NC(=O)OCc3ccccc3)cc2)c(C#N)c2ccc(OCCOC)cc21 [Compound 1372] |
| 148 to 151 °C | CCn1c(-c2ccc(NC(=O)OCCCl)cc2)c(C#N)c2ccc(OCCOC)cc21 [Compound 1373] |
| 108 to 120 °C | CCn1c(-c2cccc(NC(=O)N3CCN(C)CC3)c2)c(C#N)c2ccc(OC)cc21 [Compound 1375] |
| 165 to 167 °C | CCN(CC)C(=O)Nc1ccc(-c2c(C#N)c3ccc(OC)cc3n2CC)cc1 [Compound 1376] |
| 147 to 150 °C | CCN(CC)C(=O)Nc1ccc(-c2c(C#N)c3ccc(OCCOC)cc3n2CC)cc1 [Compound 1378] |

| melting point | Structure (SMILES) |
| --- | --- |
| 152 to 155 °C | CCn1c(-c2ccc(NC(=O)N3CCC(C)CC3)cc2)c(C#N)c2ccc(OCCOC)cc21 [Compound 1379] |
| 216 to 218 °C | CCn1c(-c2ccc(NC(=O)N3CCCCC3)cc2)c(C#N)c2ccc(OCCOC)cc21 [Compound 1380] |
| 151 to 154 °C | CCn1c(-c2ccc(NC(=O)N3CCCC3)cc2)c(C#N)c2ccc(OCCOC)cc21 [Compound 1381] |
| 110 to 114 °C | CCn1c(-c2ccc(NC(=O)N(CCOC)CCOC)cc2)c(C#N)c2ccc(OCCOC)cc21 [Compound 1382] |
| 175 to 176 °C | CCn1c(-c2ccc(NC(=O)N(C)Cc3ccccc3)cc2)c(C#N)c2ccc(OCCOC)cc21 [Compound 1384] |
| 122 to 127 °C | CCn1c(-c2ccc(OC(=O)N(C)CCOC)cc2)c(C#N)c2ccc(OC)cc21 [Compound 1385] |
| 213 to 214 °C | CCCn1c(-c2ccc(NC(=O)N(CC)CC)cc2)c(C#N)c2ccc(OC)cc21 [Compound 1386] |
| 65 to 70 °C | CCCNC(=O)Nc1ccc(-c2c(C#N)c3ccc(O[Si](C)(C)C(C)(C)C)cc3n2CC)cc1 [Compound 1387] |
| 161 to 164 °C | CCCn1c(-c2ccc(NC(=O)NCc3ccco3)cc2)c(C#N)c2ccc(OC)cc21 [Compound 1388] |
| 171 to 173 °C | CCn1c(-c2ccc(NC(=O)OC(C)(C)C)cc2)c(C#N)c2ccc(N3CCN(CC4CC4)CC3)cc21 [Compound 1389] |
| 217 to 223 °C | CCOc1ccc2c(C#N)c(-c3ccc(NC(=O)NCCN4CCOCC4)cc3)n(C3CCC3)c2c1 [Compound 1390] |
| 195 to 200 °C | CCOc1ccc2c(C#N)c(-c3ccc(NC(=O)NCC(C)O)cc3)n(C3CCC3)c2c1 (centres unmarked) [Compound 1391] |
| 193 to 197 °C | CCOc1ccc2c(C#N)c(-c3ccc(NC(=O)NCCc4ccccn4)cc3)n(C3CCC3)c2c1 [Compound 1392] |
| 96.5 to 100.6 °C | CCn1c(-c2ccc(NC(=O)C3CC3)cc2)c(C#N)c2ccc(OCCNCCN3CCOCC3)cc21 [Compound 1394] |
| 95.9 to 99 °C | CCn1c(-c2ccc(NC(=O)C3CC3)cc2)c(C#N)c2ccc(OCCN3CCCN(C)CC3)cc21 [Compound 1395] |
| 192 to 198 °C | CCOc1ccc2c(C#N)c(-c3ccc(NC(=O)NCc4ccco4)cc3)n(C3CCC3)c2c1 [Compound 1396] |
| 125 to 126 °C | COCCOc1ccc2c(C#N)c(-c3ccc(NC(=O)OC(C)C)cc3)n(C3CCC3)c2c1 [Compound 1399] |
| 168 to 169 °C | COCCOc1ccc2c(C#N)c(-c3ccc(NC(=O)OC4CCCC4)cc3)n(C3CCC3)c2c1 [Compound 1400] |
| 182 to 183 °C | COCCOc1ccc2c(C#N)c(-c3ccc(NC(=O)Oc4ccc(Cl)cc4)cc3)n(C3CCC3)c2c1 [Compound 1401] |
| 144 to 145 °C | COCCOc1ccc2c(C#N)c(-c3ccc(NC(=O)OCc4ccccc4)cc3)n(C3CCC3)c2c1 [Compound 1402] |
| 168 to 171 °C | CCn1c(-c2ccc(NC(=O)NCCc3ccccc3)cc2)c(C#N)c2ccc(OCCOC)cc21 [Compound 1403] |
| 182 to 185 °C | CCn1c(-c2ccc(NC(=O)NC(C)C)cc2)c(C#N)c2ccc(OCCOC)cc21 [Compound 1405] |
| 141 to 144 °C | CCn1c(-c2ccc(NC(=O)OC(C)C)cc2)c(C#N)c2ccc(OCCOC)cc21 [Compound 1406] |
| 137 to 140 °C | CCn1c(-c2ccc(NC(=O)OC3CCCC3)cc2)c(C#N)c2ccc(OCCOC)cc21 [Compound 1407] |
| 152 to 155 °C | CCOc1ccc2c(C#N)c(-c3ccc(NC(=O)NCCCOC)cc3)n(C3CCC3)c2c1 [Compound 1409] |
